The source of these data is patent US20090197916A1, “SOLUBLE EPOXIDE HYDROLASE INHIBITORS FOR TREATMENT OF METABOLIC SYNDROME AND RELATED DISORDERS” (Arete Therapeutics, Inc, priority 2007, published 2009).

Molecules are shown by their SMILES.

For orientation: IC50 means the concentration needed to halve the response being measured. What is called bioavailability is the share of a dose that reaches the circulation, judged against a reference dose that is usually intravenous. High values mean good availability, low ones poor availability. What is called half-life is the time needed for the level to fall by half in the phase considered. A word on the inhibition: it is the change of the read-out against control, counted positive when it falls.

One data set addresses T1, PPARγ (Homo sapiens, UniProt P37231).
T1 sequence (P37231 1-505): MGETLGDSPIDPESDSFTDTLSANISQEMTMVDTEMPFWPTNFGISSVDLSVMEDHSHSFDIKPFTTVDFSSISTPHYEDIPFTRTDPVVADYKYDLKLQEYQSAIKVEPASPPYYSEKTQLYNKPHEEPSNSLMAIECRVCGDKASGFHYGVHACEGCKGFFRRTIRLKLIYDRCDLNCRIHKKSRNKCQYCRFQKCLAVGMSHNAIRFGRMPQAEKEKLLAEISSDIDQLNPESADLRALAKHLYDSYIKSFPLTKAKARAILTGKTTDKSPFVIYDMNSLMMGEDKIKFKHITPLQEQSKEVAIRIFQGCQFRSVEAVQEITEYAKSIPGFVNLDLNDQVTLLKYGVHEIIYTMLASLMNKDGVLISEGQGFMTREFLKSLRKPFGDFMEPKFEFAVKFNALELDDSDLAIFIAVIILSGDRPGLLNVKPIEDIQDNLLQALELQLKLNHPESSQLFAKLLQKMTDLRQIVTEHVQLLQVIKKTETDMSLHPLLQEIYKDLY
Briefly: standard PPARγ activation assay. In kind it is cell-based. To be noted: relative to standard reference.

For data set [1], the system named is Zucker diabetic fatty rats (ZDF). Briefly: Model 4: Zucker diabetic fatty rats. The data set is classed as in vivo. To be noted: daily dose of 100 mg/kg for four weeks, vs vehicle. The protocol:
All protocols were approved by the institutional animal care and use committee at Arête Therapeutics. Eight weeks old male Zucker diabetic fatty rats (ZDF) (Charles River Laboratory, Hollister, Calif.) with a 270 g body weight on average used in this study were fed a normal chow. Baseline blood pressure and body weight were measured before surgery. Animals were anesthetized by inhalation of 2% isoflurane. The animals were randomly divided into 2 groups; […] Four animals were assigned to the vehicle group and three to the Compound 2 group. After 4 weeks of treatment, systolic blood pressure was measured in conscious mice using a tail-cuff system (Kent Scientific Corporation, Torrington, Conn.), and the animals were euthanized. Blood samples were collected via cardiac puncture for the measurement of a serum cholesterol profile (IDEXX Veterinary Services, West Sacramento, Calif.) and tissues were removed for analysis. All results are presented as the mean and standard error (SEM). Comparison between the vehicle and Compound 2 treatment groups was performed using Student's t test.

A further data set deals with T2, whole blood sEH activity (Mus musculus, UniProt P34914).
T2 construct: from tissue; host or cells: whole blood of apoE KO mice
T2 sequence (P34914 1-554): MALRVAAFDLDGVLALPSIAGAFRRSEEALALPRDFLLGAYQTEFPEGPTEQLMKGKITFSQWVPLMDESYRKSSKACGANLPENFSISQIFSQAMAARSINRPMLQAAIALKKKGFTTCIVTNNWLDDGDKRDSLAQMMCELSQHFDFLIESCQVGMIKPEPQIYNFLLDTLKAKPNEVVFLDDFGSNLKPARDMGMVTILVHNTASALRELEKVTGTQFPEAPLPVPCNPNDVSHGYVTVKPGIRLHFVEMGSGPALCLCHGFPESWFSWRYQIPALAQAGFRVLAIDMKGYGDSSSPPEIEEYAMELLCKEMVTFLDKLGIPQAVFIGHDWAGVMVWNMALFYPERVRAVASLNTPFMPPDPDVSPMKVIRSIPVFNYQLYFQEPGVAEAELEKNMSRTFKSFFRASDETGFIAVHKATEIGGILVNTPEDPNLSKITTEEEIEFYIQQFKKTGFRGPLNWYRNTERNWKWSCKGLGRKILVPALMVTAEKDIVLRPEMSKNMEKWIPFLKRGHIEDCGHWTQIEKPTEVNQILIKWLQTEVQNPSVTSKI
Briefly: whole blood sEH activity in apoE KO mice, dosing with drinking water. The data set is classed as in vivo. To be noted: treatment with drinking water.

The next data set relates to apoE deficient mice. The experiment in a line: Model 3: angiotensin II-infused apoE deficient mice with carotid ligation. The data set is classed as in vivo. On the procedure: All protocols were approved by the institutional animal care and use committee at Arête Therapeutics. Six-month old male apoE deficient mice (The Jackson Laboratory, Bar Harbor, Me.) fed a normal chow were used in this study. Baseline blood pressure and body weight were measured before surgery. Animals were anesthetized by inhalation of 2% isoflurane. The left common carotid artery carefully dissected via a midline neck incision under a dissecting microscope, and the left common carotid artery was ligated with a 6-0 silk ligature just proximal to its bifurcation. At the time of ligation, animals were subcutaneously implanted with a minipump (model 2004, Durect Corp., Cupertino, Calif.) filled with Ang II (1.44 mg/Kg/day, Phoenix Pharmaceuticals, Burlingame, Calif.). The animals were randomly divided into 2 groups; Vehicle: drinking water containing 5% hydroxypropyl-beta-cyclodextrin (HPBCD) or Compound 6: drinking water containing 1.5 mg/ml Compound 6 in 5% HPBCD. Each experimental group included 11 animals. After 4 weeks of Ang TI infusion, systolic blood pressure was measured in conscious mice using a tail-cuff system (Kent Scientific Corporation, Torrington, Conn.), and the animals were euthanized. Blood samples were collected via cardiac puncture for the measurement of a serum cholesterol profile (IDEXX Veterinary Services, West Sacramento, Calif.) and serum inflammatory panel (Murigenics, Hayward, Calif.) using a mouse cytokine/chemokine panel kit (Millipore, Billerica, Mass.), and tissues were removed for analysis.
All results are presented as the mean and standard error (SEM). Comparison between the vehicle and Compound 6 treatment groups was performed using Student's t test. The percentage of mice that developed AAA was compared between the two groups using X^2 test.

Data set [2] addresses T3, sEH (Homo sapiens, UniProt P34913).
T3 sequence (P34913 1-555): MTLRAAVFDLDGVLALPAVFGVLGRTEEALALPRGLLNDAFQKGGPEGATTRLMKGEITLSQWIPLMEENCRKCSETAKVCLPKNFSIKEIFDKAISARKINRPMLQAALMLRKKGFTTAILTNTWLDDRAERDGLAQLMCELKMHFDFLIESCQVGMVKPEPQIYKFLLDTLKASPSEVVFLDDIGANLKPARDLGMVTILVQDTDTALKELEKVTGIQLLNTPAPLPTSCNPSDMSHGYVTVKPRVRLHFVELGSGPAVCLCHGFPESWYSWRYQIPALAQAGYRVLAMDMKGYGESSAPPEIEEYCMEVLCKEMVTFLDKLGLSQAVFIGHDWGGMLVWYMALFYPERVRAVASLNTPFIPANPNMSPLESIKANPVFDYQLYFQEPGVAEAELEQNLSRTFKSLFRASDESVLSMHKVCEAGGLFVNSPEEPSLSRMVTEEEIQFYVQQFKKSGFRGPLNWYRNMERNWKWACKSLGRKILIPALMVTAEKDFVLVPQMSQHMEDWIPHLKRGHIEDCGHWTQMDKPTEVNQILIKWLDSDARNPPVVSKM
The experiment in a line: sEH enzymatic assay (Compound 6). Particulars: read-out: IC50 for inhibition of sEH, enzymatic assay. The data set is classed as biochemical.

A short description of the next data set: pharmacokinetics in mice. To be noted: mouse, plasma. In kind it is in vivo.
Data set [3] addresses T3, sEH. Briefly: sEH inhibition, fluorescent assay with CMNPC substrate (percent inhibition and IC50). The data set is classed as biochemical. To be noted: Concentration 2000 nM. The protocol: The substrate for the reaction was:
Therefore, well A2 would refer to a well in the first row and second column of the plate.
In a black 96 well plate, all the wells are filled with 150 μL of buffer A (Buffer A: Bis/Tris HCl, 25 mM, pH 7.0 plus 0.1 mg/mL BSA). DMSO (2 microliters) was added in well A2 and A3, and then was added 2 μL of inhibitor solution in A1 and A4 through A12. […] The plate was incubated for 5 minutes in the plate reader at 30° C. During incubation, the working solution of substrate was prepared by mixing 3.68 mL of buffer A with 266 μL of 0.5 mM substrate solution. At t=0, 30 μL of working substrate solution was added and readings were started ([S]final: 5 μM).

The target in data set [4] is T3, sEH. Briefly: sEH cell based assay (Compound 6). To be noted: read-out: IC50 for inhibition of sEH, cell based assay.
Data set [5] relates to over 100 cardiovascular disease related targets, including hydroxy-methylglutaryl-coenzyme A (HMO CoA) reductase. The experiment in a line: off-target screen assays. To be noted: concentration of 10 μM.

`CCCCCC1OC1C/C=C\C/C=C\C/C=C\CCCC(=O)O` (centres unmarked) [14, 15 EET, reference compound]: the “PPARγ activation relative to troglitzone (100%)” value on PPARγ came out at 28%.

Consider `CC(=O)N1CCC(NC(=O)NC23CC4CC(CC(C4)C2)C3)CC1` [Compound 2, 1-[1-(acetyl)piperidin-4-yl]-3-(adamant-1-yl) urea], for which, in [1], the HDL level result is “decreased”, the LDL result is on record as “significantly decreased”, the “blood glycated hemoglobin (HbA1c %)” value is listed as “significantly decreased” and the “fasting plasma glucose level” value was “significantly decreased”. In addition, in data set [1], the total cholesterol entry is listed as “significantly decreased” and the “triglycerides (TGs)” value is “significantly decreased”.

For the compound `O=C(Nc1ccc(OC(F)(F)F)cc1)NC1CCN(C(=O)c2cccnc2)CC1` [Compound 6, 1-(1-nicotinoylpiperidin-4-yl)-3-(4-(trifluoromethoxy)phenyl)urea], the “PPARγ activation relative to troglitzone (100%)” value at PPARγ turned out to be 11%. The compound further came in with an average plasma concentration at whole blood sEH activity of 21 ± 1.8 µg/mL. Further, in the data set with apoE deficient mice (4 weeks), the “HDL levels compared to vehicle” value is given as “significantly higher”; the “effect on blood pressure, body weights, and food consumption” value is “no statistical significant effect”; the “ratio of LDL/HDL relative to vehicle group” value is recorded as “only half of that in vehicle group”; the “total cholesterol level compared to vehicle” value is recorded as “significantly lower”. The “triglyceride and glucose levels compared to vehicle” value with apoE deficient mice (4 weeks) is recorded as “no significant difference”. In the data set on apoE deficient mice (4 weeks, vehicle 19.6 ± 1.5), the “Ratio of LDL/HDL” value stood at 10.5 ± 1.5. The “body weight” value with apoE deficient mice (4 weeks, vehicle 27 ± 0.7) is recorded as 28 ± 0.6 g. Also, in the data set on apoE deficient mice (4 weeks, vehicle 32 ± 3), the “HDL” value came out at 46 ± 4 mg/dL. In addition, the “Blood Glucose” value in the data set with apoE deficient mice (4 weeks, vehicle 216 ± 22) is given as 185 ± 17 mg/dL. For the same compound, the “Triglyceride” value in the data set with apoE deficient mice (4 weeks, vehicle 301 ± 59) was 258 ± 47 mg/dL. For the same compound, the “LDL” value in the data set on apoE deficient mice (4 weeks, vehicle 624 ± 70) was 438 ± 28 mg/dL. Further, in the data set with apoE deficient mice (Baseline, before surgery and treatment), the “Blood Pressure (mmHg) Baseline” value amounted to 101 ± 2 mmHg. For the same compound, the “Blood Pressure (mmHg) End” value with apoE deficient mice (End, after 4 weeks of Ang II infusion, vehicle 137 ± 3) is given as 130 ± 4 mmHg. Moreover, the “atherosclerosis progression and aneurysm formation” value in the data set on apoE deficient mice (apoE deficient mice chronically treated with Ang II) was “attenuated”. Besides, at sEH [2], the IC50 stood at 1.6 nM. The compound further gave a bioavailability in “pharmacokinetics in mice” (AUC oral dose relative to AUC intravenous dose) of over 100%. The half-life in the data set “pharmacokinetics in mice” (intravenous administration, read-out: terminal half life (converted)) is about 4 h. In addition, on sEH [3], the inhibition at 2 µM worked out at 100%. Besides, on sEH [4], the IC50 worked out at 8.9 nM. The “activity in off-target screen assays” value in [5] was “inactive”.
